Measured values published in PMC4279406, “Simultaneous targeting of PI3Kδ and a PI3Kδ-dependent MEK1/2-Erk1/2 pathway for therapy in pediatric B-cell acute lymphoblastic leukemia” (Oncotarget, 2014).

Tests used:
Assay in all cases: KinaseProfiler protein kinase activity
Format in all cases: biochemical
Details in all cases: 10 μM X-370
CK1(y) = system: CK1(y)
Protocol: (§1) In vitro kinase profile assays were analyzed by the Kinase Profiler Service (Millipore, United Kingdom) following its guidelines. A GST-tagged human p110δ and regulatory full-length p85 were co-expressed in insect cell Sf9. Recombinant protein was extracted by affinity purification. The PI3K kinase activity was determined in the increasing concentration of ATP and X-370 with PI3-Kinase HTRF™ Assay kit (Millipore) as described previously. […]
(§2) Table S1: Inhibitory activity of X-370 against protein kinases
(§3) kinome at 10 μM. The relative kianse activity left in the presence of 10 μM were shown (Mi llipore
(§4) Kinase activity (% of control) Kinase activity (% of control) Kinase activity (% of control)
(§5) CDK1/cyclinB 97 Lck activated 89 Ret 125

MEK1 = biological target: T1, MEK1 (Homo sapiens, UniProt Q02750)
T1 construct: purchased Millipore KinaseProfiler
Protocol: as §1, §2, §3, §4, §5

Itk = biological target: T2, Itk (Homo sapiens, UniProt Q08881)
T2 construct: purchased Millipore KinaseProfiler
Protocol: as §1, §2, §3, §4, §5

PEK = biological target: T3, PEK (Homo sapiens, UniProt Q9NZJ5)
T3 construct: purchased Millipore KinaseProfiler
Protocol: as §1, §2, §3, §4, §5

IR, activated = biological target: T4, IR, activated (Homo sapiens, UniProt P06213)
T4 construct: purchased Millipore KinaseProfiler
Protocol: as §1, §2, §3, §4, §5

Met = biological target: T5, Met (Homo sapiens, UniProt P08581)
T5 construct: purchased Millipore KinaseProfiler
Protocol: as §1, §2, §3, §4, §5

Tie2 = biological target: T6, Tie2 (Homo sapiens, UniProt Q02763)
T6 construct: purchased Millipore KinaseProfiler
Protocol: as §1, §2, §3, §4, §5

DYRK2 = biological target: T7, DYRK2 (Homo sapiens, UniProt Q92630)
T7 construct: purchased Millipore KinaseProfiler
Protocol: as §1, §2, §3, §4, §5

LKB1 = biological target: T8, LKB1 (Homo sapiens, UniProt Q15831)
T8 construct: purchased Millipore KinaseProfiler
Protocol: as §1, §2, §3, §4, §5

Ron = biological target: T9, Ron (Homo sapiens, UniProt Q04912)
T9 construct: purchased Millipore KinaseProfiler
Protocol: as §1, §2, §3, §4, §5

Ret = biological target: T10, Ret (Homo sapiens, UniProt P07949)
T10 construct: purchased Millipore KinaseProfiler
Protocol: as §1, §2, §3, §4, §5

Pim-1 = biological target: T11, Pim-1 (Homo sapiens, UniProt P11309)
T11 construct: purchased Millipore KinaseProfiler
Protocol: as §1, §2, §3, §4, §5

ROCK-I = biological target: T12, ROCK-I (Homo sapiens, UniProt Q13464)
T12 construct: purchased Millipore KinaseProfiler
Protocol: as §1, §2, §3, §4, §5

PKA = biological target: T13, PKA (Homo sapiens, UniProt P17612)
T13 construct: purchased Millipore KinaseProfiler
Protocol: as §1, §2, §3, §4, §5

Aurora-A = biological target: T14, Aurora-A (Homo sapiens, UniProt O14965)
T14 construct: purchased Millipore KinaseProfiler
Protocol: as §1, §2, §3, §4, §5

PDGFR α = biological target: T15, PDGFR α (Homo sapiens, UniProt P16234)
T15 construct: purchased Millipore KinaseProfiler
Protocol: as §1, §2, §3, §4, §5

FGFR1 = biological target: T16, FGFR1 (Homo sapiens, UniProt P11362)
T16 construct: purchased Millipore KinaseProfiler
Protocol: as §1, §2, §3, §4, §5

BTK = biological target: T17, BTK (Homo sapiens, UniProt Q06187)
T17 construct: purchased Millipore KinaseProfiler
Protocol: as §1, §2, §3, §4, §5

Fyn = biological target: T18, Fyn (Homo sapiens, UniProt P06241)
T18 construct: purchased Millipore KinaseProfiler
Protocol: as §1, §2, §3, §4, §5

IRAK1 = biological target: T19, IRAK1 (Homo sapiens, UniProt P51617)
T19 construct: purchased Millipore KinaseProfiler
Protocol: as §1, §2, §3, §4, §5

PKC α = biological target: T20, PKC α (Homo sapiens, UniProt P17252)
T20 construct: purchased Millipore KinaseProfiler
Protocol: as §1, §2, §3, §4, §5

PKC μ = biological target: T21, PKC μ (Homo sapiens, UniProt Q15139)
T21 construct: purchased Millipore KinaseProfiler
Protocol: as §1, §2, §3, §4, §5

IKK α = biological target: T22, IKK α (Homo sapiens, UniProt O15111)
T22 construct: purchased Millipore KinaseProfiler
Protocol: as §1, §2, §3, §4, §5

ALK = biological target: T23, ALK (Homo sapiens, UniProt Q9UM73)
T23 construct: purchased Millipore KinaseProfiler
Protocol: as §1, §2, §3, §4, §5

EphA1 = biological target: T24, EphA1 (Homo sapiens, UniProt P21709)
T24 construct: purchased Millipore KinaseProfiler
Protocol: as §1, §2, §3, §4, §5

p70S6K = biological target: T25, p70S6K (Homo sapiens, UniProt P23443)
T25 construct: purchased Millipore KinaseProfiler
Protocol: as §1, §2, §3, §4, §5

SAPK2a(T106M) = biological target: T26, SAPK2a(T106M) (Homo sapiens, UniProt Q16539, T106M)
T26 construct: purchased Millipore KinaseProfiler
Protocol: as §1, §2, §3, §4, §5

CaMKI = biological target: T27, CaMKI (Homo sapiens, UniProt Q14012)
T27 construct: purchased Millipore KinaseProfiler
Protocol: as §1, §2, §3, §4, §5

PAK2 = biological target: T28, PAK2 (Homo sapiens, UniProt Q13177)
T28 construct: purchased Millipore KinaseProfiler
Protocol: as §1, §2, §3, §4, §5

Flt1 = biological target: T29, Flt1 (Homo sapiens, UniProt P17948)
T29 construct: purchased Millipore KinaseProfiler
Protocol: as §1, §2, §3, §4, §5

Syk = biological target: T30, Syk (Homo sapiens, UniProt P43405)
T30 construct: purchased Millipore KinaseProfiler
Protocol: as §1, §2, §3, §4, §5

Abl = biological target: T31, Abl (Homo sapiens, UniProt P00519)
T31 construct: purchased Millipore KinaseProfiler
Protocol: as §1, §2, §3, §4, §5

MAPKAP-K2 = biological target: T32, MAPKAP-K2 (Homo sapiens, UniProt P49137)
T32 construct: purchased Millipore KinaseProfiler
Protocol: as §1, §2, §3, §4, §5

ASK1 = biological target: T33, ASK1 (Homo sapiens, UniProt Q99683)
T33 construct: purchased Millipore KinaseProfiler
Protocol: as §1, §2, §3, §4, §5

mTOR = biological target: T34, mTOR (Homo sapiens, UniProt P42345)
T34 construct: purchased Millipore KinaseProfiler
Protocol: as §1, §2, §3, §4, §5

CDK1/cyclinB = biological target: T35, CDK1/cyclinB (Homo sapiens, UniProt P06493)
T35 construct: purchased Millipore KinaseProfiler
Protocol: as §1, §2, §3, §4, §5

c-RAF = biological target: T36, c-RAF (Homo sapiens, UniProt P04049)
T36 construct: purchased Millipore KinaseProfiler
Protocol: as §1, §2, §3, §4, §5

Lck activated = biological target: T37, Lck activated (Homo sapiens, UniProt P06239)
T37 construct: purchased Millipore KinaseProfiler
Protocol: as §1, §2, §3, §4, §5

MARK1 = biological target: T38, MARK1 (Homo sapiens, UniProt Q9P0L2)
T38 construct: purchased Millipore KinaseProfiler
Protocol: as §1, §2, §3, §4, §5

Rsk1 = biological target: T39, Rsk1 (Homo sapiens, UniProt Q15418)
T39 construct: purchased Millipore KinaseProfiler
Protocol: as §1, §2, §3, §4, §5

Axl = biological target: T40, Axl (Homo sapiens, UniProt P30530)
T40 construct: purchased Millipore KinaseProfiler
Protocol: as §1, §2, §3, §4, §5

T33 sequence (Q99683 whole entry): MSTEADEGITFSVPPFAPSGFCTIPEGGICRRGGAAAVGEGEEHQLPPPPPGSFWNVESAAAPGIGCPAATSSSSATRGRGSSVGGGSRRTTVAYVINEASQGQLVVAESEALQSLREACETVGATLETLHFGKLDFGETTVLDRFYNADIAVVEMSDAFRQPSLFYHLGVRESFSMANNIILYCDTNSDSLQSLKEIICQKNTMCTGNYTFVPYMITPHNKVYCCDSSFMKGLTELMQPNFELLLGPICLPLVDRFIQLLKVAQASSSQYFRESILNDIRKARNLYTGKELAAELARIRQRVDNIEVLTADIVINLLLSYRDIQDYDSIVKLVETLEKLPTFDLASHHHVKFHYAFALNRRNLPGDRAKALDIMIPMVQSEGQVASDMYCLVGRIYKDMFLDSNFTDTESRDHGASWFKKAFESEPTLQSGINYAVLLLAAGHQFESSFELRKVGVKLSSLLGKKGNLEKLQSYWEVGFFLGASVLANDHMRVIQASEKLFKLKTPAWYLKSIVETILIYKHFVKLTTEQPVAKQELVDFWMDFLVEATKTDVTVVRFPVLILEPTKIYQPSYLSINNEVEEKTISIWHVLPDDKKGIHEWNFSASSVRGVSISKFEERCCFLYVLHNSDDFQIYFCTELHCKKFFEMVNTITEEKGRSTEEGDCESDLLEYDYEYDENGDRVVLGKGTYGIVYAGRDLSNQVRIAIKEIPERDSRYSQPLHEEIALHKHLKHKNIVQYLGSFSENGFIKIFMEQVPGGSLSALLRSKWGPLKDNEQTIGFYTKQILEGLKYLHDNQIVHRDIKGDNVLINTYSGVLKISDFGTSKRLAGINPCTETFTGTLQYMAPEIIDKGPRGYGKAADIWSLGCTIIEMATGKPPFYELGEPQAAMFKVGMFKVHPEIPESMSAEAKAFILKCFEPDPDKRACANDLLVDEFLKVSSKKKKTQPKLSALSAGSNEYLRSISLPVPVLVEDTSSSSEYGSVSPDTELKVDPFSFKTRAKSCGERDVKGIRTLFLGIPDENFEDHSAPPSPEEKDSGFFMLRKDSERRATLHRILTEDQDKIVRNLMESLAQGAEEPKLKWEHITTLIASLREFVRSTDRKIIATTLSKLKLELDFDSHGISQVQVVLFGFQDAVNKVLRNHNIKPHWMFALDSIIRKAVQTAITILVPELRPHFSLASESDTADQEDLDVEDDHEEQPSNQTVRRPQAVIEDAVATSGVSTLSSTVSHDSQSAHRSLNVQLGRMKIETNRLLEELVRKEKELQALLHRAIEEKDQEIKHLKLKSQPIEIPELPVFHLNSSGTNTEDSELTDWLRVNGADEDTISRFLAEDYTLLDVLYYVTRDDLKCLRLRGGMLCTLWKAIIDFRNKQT
T23 sequence (Q9UM73 19-1620): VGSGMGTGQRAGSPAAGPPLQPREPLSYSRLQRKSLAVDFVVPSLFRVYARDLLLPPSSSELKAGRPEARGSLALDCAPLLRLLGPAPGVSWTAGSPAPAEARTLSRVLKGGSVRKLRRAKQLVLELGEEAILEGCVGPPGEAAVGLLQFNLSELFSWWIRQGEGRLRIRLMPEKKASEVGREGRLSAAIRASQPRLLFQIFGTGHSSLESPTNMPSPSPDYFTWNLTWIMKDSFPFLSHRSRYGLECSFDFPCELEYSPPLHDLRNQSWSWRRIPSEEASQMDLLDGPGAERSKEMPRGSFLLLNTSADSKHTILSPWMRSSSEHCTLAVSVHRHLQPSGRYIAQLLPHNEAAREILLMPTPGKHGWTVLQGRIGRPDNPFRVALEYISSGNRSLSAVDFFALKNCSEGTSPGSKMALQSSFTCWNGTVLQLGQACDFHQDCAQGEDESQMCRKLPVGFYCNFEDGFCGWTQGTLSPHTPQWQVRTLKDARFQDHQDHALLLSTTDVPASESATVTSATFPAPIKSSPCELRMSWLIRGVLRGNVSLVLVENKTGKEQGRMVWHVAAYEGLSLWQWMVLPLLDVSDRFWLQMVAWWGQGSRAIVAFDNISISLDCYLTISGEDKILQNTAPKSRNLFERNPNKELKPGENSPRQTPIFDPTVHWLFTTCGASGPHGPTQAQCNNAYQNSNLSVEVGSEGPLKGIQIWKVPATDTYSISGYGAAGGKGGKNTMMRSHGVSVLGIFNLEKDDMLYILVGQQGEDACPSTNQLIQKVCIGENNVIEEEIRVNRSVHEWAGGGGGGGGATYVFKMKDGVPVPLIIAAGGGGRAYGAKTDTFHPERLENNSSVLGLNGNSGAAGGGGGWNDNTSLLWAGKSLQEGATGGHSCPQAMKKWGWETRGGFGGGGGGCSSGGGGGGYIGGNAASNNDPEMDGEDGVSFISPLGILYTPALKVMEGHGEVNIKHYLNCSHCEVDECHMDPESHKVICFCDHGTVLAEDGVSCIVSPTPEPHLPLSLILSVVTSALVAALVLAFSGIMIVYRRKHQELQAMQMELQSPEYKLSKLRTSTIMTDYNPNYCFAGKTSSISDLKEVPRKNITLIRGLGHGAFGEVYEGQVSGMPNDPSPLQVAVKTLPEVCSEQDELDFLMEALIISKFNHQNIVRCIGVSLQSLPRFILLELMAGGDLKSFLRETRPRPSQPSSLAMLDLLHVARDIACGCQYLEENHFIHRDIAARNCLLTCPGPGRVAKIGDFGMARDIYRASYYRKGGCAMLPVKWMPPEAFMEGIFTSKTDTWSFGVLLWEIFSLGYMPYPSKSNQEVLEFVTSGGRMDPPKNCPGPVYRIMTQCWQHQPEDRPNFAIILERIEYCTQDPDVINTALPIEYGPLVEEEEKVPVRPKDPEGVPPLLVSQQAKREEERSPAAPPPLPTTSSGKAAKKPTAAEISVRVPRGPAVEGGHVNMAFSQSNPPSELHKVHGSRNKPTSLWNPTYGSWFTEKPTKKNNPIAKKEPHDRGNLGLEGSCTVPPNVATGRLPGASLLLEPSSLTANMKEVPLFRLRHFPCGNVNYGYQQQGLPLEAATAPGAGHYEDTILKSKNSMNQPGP
T17 sequence (Q06187 whole entry): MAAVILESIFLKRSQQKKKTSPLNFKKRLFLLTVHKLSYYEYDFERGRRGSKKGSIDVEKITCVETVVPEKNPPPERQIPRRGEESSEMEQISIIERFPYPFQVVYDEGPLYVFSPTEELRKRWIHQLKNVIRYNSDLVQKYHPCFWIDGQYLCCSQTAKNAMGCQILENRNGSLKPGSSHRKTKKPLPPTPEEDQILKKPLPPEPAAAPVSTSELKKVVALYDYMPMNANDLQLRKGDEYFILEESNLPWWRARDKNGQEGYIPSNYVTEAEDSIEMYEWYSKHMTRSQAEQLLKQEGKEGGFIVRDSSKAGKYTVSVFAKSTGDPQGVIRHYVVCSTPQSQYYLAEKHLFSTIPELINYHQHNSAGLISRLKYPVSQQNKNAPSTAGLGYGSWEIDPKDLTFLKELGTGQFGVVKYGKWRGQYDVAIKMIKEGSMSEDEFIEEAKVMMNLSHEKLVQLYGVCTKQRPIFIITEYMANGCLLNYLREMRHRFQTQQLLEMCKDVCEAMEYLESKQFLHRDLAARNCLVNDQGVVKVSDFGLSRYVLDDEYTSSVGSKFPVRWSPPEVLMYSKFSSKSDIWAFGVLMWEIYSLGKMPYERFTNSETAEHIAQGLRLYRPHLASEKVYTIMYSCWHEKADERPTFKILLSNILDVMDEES
T35 sequence (P06493 whole entry): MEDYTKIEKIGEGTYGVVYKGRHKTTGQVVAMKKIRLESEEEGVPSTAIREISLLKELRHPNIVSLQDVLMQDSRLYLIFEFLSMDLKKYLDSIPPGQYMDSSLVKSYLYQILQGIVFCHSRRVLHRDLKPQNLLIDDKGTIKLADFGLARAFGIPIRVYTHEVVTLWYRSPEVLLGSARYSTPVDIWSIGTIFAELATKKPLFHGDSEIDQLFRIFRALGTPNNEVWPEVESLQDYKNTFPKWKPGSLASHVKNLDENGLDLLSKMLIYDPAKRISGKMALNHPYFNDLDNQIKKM
T35 sequence (P14635 whole entry partner): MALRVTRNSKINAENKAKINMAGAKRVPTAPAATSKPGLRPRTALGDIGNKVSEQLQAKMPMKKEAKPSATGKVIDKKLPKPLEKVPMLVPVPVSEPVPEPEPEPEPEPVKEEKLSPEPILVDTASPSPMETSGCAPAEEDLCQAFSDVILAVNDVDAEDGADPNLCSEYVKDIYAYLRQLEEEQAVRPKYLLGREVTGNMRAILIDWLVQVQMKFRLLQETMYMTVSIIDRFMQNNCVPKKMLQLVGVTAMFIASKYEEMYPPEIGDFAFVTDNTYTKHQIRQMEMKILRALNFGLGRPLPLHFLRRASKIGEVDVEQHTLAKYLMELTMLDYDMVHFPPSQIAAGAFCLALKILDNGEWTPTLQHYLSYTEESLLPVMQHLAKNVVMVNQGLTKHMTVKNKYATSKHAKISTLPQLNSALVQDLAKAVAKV

## O=C(N1CCCC1)N1CCC(n2cnc3c(-n4c(C(F)F)nc5ccccc54)nc(N4CCOCC4)nc32)CC1 [X-370]
CK1(y)
  Kinase activity (% of control): 64 % of control
MEK1
  Kinase activity (% of control): 109 % of control
Itk
  Kinase activity (% of control): 106 % of control
PEK
  Kinase activity (% of control): 105 % of control
IR, activated
  Kinase activity (% of control): 111 % of control
Met
  Kinase activity (% of control): 113 % of control
Tie2
  Kinase activity (% of control): 88 % of control
DYRK2
  Kinase activity (% of control): 102 % of control
LKB1
  Kinase activity (% of control): 66 % of control
Ron
  Kinase activity (% of control): 111 % of control
Ret
  Kinase activity (% of control): 125 % of control
Pim-1
  Kinase activity (% of control): 88 % of control
ROCK-I
  Kinase activity (% of control): 93 % of control
PKA
  Kinase activity (% of control): 106 % of control
Aurora-A
  Kinase activity (% of control): 73 % of control
PDGFR α
  Kinase activity (% of control): 121 % of control
FGFR1
  Kinase activity (% of control): 108 % of control
BTK
  Kinase activity (% of control): 121 % of control
Fyn
  Kinase activity (% of control): 97 % of control
IRAK1
  Kinase activity (% of control): 106 % of control
PKC α
  Kinase activity (% of control): 96 % of control
PKC μ
  Kinase activity (% of control): 98 % of control
IKK α
  Kinase activity (% of control): 95 % of control
ALK
  Kinase activity (% of control): 79 % of control
EphA1
  Kinase activity (% of control): 99 % of control
p70S6K
  Kinase activity (% of control): 88 % of control
SAPK2a(T106M)
  Kinase activity (% of control): 102 % of control
CaMKI
  Kinase activity (% of control): 117 % of control
PAK2
  Kinase activity (% of control): 100 % of control
Flt1
  Kinase activity (% of control): 99 % of control
Syk
  Kinase activity (% of control): 85 % of control
Abl
  Kinase activity (% of control): 130 % of control
MAPKAP-K2
  Kinase activity (% of control): 95 % of control
ASK1
  Kinase activity (% of control): 107 % of control
mTOR
  Kinase activity (% of control): 47 % of control
CDK1/cyclinB
  Kinase activity (% of control): 97 % of control
c-RAF
  Kinase activity (% of control): 50 % of control
Lck activated
  Kinase activity (% of control): 89 % of control
MARK1
  Kinase activity (% of control): 89 % of control
Rsk1
  Kinase activity (% of control): 88 % of control
Axl
  Kinase activity (% of control): 106 % of control
